Test: Adriamycin elution from bone cement in vitro
Type: physicochemical
Settings: one or two vials (10 mg adriamycin each) added to a packet of PMMA bone cement (22.5 g powder + 9 ml liquid monomer)
Protocol: […] […] They were mixed thoroughly to ensure there are no large adriamycin flakes. […] One gram of this composite elutes 340 micrograms of adriamycin within 24 hours in vitro. The prepared bone cement drug powder was then loaded in sterile syringes (2 g/syringe). To prepare the bone cement putty for implantation and in situ polymerization, 1 ml of Confidence™ monomer was added to this powder and mixed thoroughly 5 minutes prior to implantation.

With `COc1cccc2c1C(=O)c1c(O)c3c(c(O)c1C2=O)C[C@@](O)(C(=O)CO)C[C@@H]3O[C@H]1C[C@H](N)[C@H](O)[C@H](C)O1` [adriamycin] the “elution of adriamycin from PMMA bone cement without filler” value was “negligible elution”.

Source: US20110111061A1, “Compositions and Methods for the Treatment of Skeletal Metastatic Lesions and Fractures” (priority 2008, published 2011)
